Test results published in US20250161332A1, “NON-PSYCHOACTIVE MULTI-CANNABINOID AND POLYSACCHARIDE AND POLYSACCHAROPEPTIDE-BASED THERAPEUTIC COMPOSITIONS AND METHODS OF THEIR ADMINISTRATIO” (Pebble Global Holdings, priority 2021, published 2025).

Assays:
B16-F10 melanoma = details: cited from earlier work
[1] = treatment regimens, cited from earlier work; for nausea and gastrointestinal (GI) AEs, occurrence: single agents
[2] = tested on: ovarian cancer cell lines; assay: Cell viability assay (tetrazolium to formazan), 10 ovarian cancer cell lines; format: cell-based; details: 72 h
Excerpt: Synergistic relationships for combinations of terpenoids and cannabinoids have been reported Russo, E. B. and J. Marcu, Chapter Three—Cannabis Pharmacology: The Usual Suspects and a Few Promising Leads, in Advances in Pharmacology, D. Kendall and S. P. H. Alexander, Editors. 2017, Academic Press. p. 67-134, the entire disclosure of which is incorporated herein by reference This observed synergy was strongly dependent on the ratio and origin of terpenoids, as shown in triple negative breast cancer models. In addition, many cannabinoids and terpenoids are immune suppressors as reported for alpha-bisabolol, which activates TGF to promote the differentiation of macrophages into the M2 phenotype (tumor promoting) and regulatory T cells. Ovarian cancer cell lines tested included A2780ip2, A2780CP20, HeyA8, HeyA8-MDR, SKOV3 and OVCAR3 and were maintained in RPMI 1640 supplemented with 10-15% fetal bovine serum and 0.1% gentamicin sulfate (available from Gemini Bioproducts, Calabasas, CA, USA). OVCAR5 cells were maintained in Dulbecco's modified Eagle's medium with 10% fetal bovine serum and 0.1% gentamicin sulfate. 1D8 murine ovarian cancer cells were maintained in Dulbecco modified
Eagle medium containing 10% fetal bovine serum (FBS), lx insulin-transferrin-selenium (available from Thermo Fisher Scientific, Waltham, MA), and 0.5% gentamicin. All above cells were cultured at 37° C. using a 5% C02 incubator. All in vitro experiments were performed with 70-80% confluent cultures and a passage number […].
Example 7. Cell viability assays. Cell viability assays were performed by testing ovarian cancer cells' metabolic ability to reduce the tetrazolium salt 3-(4,5-dimethylthiazol-2-yl)-5-(3-carboxymethoxyphenyl)-2-(4-sulfophenyl)-2H-tetrazolium (inner salt) to a formazan. […] Activities for each reagent were determined using Hill plot analyses (Graphpad Prism 8 software) to assess the half maximal effect—ICso. Results. […]

[3] = cited from earlier work; for circulating metabolite as percent of the parent based on plasma AUC of cannabidiol: in vivo
[4] = tested on: animal models of epilepsy; details: in vivo; cited from earlier work
GPR55 = GPR55 (Homo sapiens, UniProt Q9Y2T6); details: cited from earlier work
5 HT1A receptor = target: T1, 5 HT1A receptor (Homo sapiens, UniProt P08908); details: cited from earlier work
T1 sequence (P08908 1-422): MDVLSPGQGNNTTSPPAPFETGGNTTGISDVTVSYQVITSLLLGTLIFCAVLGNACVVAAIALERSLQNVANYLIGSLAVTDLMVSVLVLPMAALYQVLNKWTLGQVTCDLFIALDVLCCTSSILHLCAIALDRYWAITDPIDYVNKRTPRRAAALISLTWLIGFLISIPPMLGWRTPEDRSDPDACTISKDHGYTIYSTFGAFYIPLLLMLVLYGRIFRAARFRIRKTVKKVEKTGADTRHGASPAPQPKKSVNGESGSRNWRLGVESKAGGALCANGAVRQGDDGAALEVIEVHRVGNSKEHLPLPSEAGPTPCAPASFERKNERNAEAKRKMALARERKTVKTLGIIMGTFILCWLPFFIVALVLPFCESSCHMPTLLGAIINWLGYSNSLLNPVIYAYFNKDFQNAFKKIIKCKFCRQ

A2780 and OVCAR5 = assay: Reverse Phase Protein Array (RPPA) and Ingenuity Pathway Analysis; format: cell-based; details: 5 μM (CBD content)
Excerpt: Example 11. Protein Expression Level Effects. […] Results.

OVCAR5 Luc = assay: In vivo dose finding and efficacy study, orthotopic xenograft model for ovarian cancer; set-up: species or system nude mice
Protocol: Example 10. In vivo dose finding and efficacy study. The purpose of this study was to determine the safety and efficacy of single agent CBD and annelix in an orthotopic xenograft model for ovarian cancer. This mouse model resembles the disease of ovarian cancer in humans with development of tumor nodules in the abdominal cavity and development of ascites. Method. Luciferase transfected human ovarian tumor cells, OVCAR5 Luc (1.0 million) were injected into the peritoneal cavity of nude mice, intra peritoneally (i.p.). On day 8 after tumor cell injection IVIS® optical imaging was performed to confirm tumor establishment. […] The study was an approved protocol of the MD Anderson Cancer Center (MDACC) Institutional Animal Care and Use Committee (IACUC). […] Mice were sacrificed on day 32 (post inoculation of cells) and tumors were harvested. Body weights, tumor weight, number of tumor nodules and ascites volumes were recorded. Results: The body weights, tumor weights, tumor nodules and ascites volumes for each of the treatment groups are shown in FIG. 4. […] Control mice received corn oil injections. Body weights were not affected by either the dose of annelix (aq.), nor by the dose of CBD in this study.

CB2 = CB2 (Homo sapiens, UniProt P34972); details: cited from earlier work
normal endothelial cells = details: cited from earlier work
ALL = details: cited from earlier work
[5] = tested on: leukemia (P388), liver cancer (HepG2), skin melanoma (B16-F10), and myelogenous leukemia (K562); details: range over the four cell lines; cited from earlier work

Chain of GPR55 (Q9Y2T6 whole entry, species assumed): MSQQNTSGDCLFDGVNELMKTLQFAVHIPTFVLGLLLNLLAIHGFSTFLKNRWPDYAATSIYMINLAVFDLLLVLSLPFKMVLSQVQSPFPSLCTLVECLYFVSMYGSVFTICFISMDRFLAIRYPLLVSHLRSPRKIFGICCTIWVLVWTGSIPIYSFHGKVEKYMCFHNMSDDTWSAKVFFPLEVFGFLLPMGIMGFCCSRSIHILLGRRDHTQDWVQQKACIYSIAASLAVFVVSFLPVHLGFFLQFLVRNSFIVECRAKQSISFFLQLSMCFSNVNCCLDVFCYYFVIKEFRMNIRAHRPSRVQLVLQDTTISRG
Chain of CB2 (P34972 whole entry, species assumed): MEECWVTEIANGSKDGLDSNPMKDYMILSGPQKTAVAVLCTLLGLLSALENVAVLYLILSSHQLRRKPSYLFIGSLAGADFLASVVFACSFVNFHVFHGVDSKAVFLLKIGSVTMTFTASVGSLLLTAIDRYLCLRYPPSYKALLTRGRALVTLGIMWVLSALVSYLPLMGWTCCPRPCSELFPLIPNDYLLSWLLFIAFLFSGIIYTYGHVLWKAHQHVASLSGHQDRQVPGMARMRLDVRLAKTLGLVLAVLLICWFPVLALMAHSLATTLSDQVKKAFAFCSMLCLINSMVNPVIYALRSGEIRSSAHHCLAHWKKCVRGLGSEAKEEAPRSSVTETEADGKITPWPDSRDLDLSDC

SMILES: C=C1C2CCC(C2)C1(C)C (stereo not drawn) [camphene, 2,2-Dimethyl-3-methyllidenebicyclo[2.2.1]heptane]
- IC50 (B16-F10 melanoma): 529 µM

SMILES: Nc1ccn([C@@H]2O[C@H](CO)[C@@H](O)C2(F)F)c(=O)n1 [gemcitabine]
- nausea and gastrointestinal (GI) AEs, occurrence [1]: 69%

SMILES: CCCCCc1cc(O)c(C/C=C(\C)CCC=C(C)C)c(O)c1 [CBG, cannabigerol]
- IC50 [2]: 17 to 35 µM

SMILES: CCCCCc1cc(O)c2c(c1)OC(C)(CCC=C(C)C)C=C2 (stereo not drawn) [CBC, cannabichromene]
- IC50 [2]: 25.9 to 49.9 µM

SMILES: CC[C@@]1(O)C(=O)OCc2c1cc1n(c2=O)Cc2cc3c(CN(C)C)c(O)ccc3nc2-1 [topotecan]
- nausea and gastrointestinal (GI) AEs, occurrence [1]: 63%

SMILES: N.N.[Cl][Pt][Cl] [cisplatinum]
- Neuropathy and neurological symptoms, occurrence [1]: 94%

SMILES: C=C(C)[C@@H]1CCC(C(=O)O)=C[C@H]1c1c(O)cc(CCCCC)cc1O [7-COOH-CBD, 7-carboxy-cannabidiol]
- circulating metabolite level relative to parent ([3]; higher than the parent cannabidiol): approximately 40 fold
- activity [4]: inactive

SMILES: C=C(C)[C@@H]1CCC(C)=C[C@H]1c1c(O)cc(CCCCC)cc1O [CBD, cannabidiol]
- mode of action at GPR55 (GPR55): antagonist
- mode of action at 5 HT1A receptor (5 HT1A receptor): agonist
- most affected pathways versus DMSO (A2780 and OVCAR5; 8 and 24 hours): HER-2 signaling in breast cancer, PI3/AKT signaling, molecular mechanisms of cancer, systemic lupus erythematosus in B cell signaling pathway, and autophagy
- most upstream regulators (A2780 and OVCAR5; 8 and 24 hours): p53, AKT, E2F1, beta-estradiol and ERBB2
- cell cycle checkpoint and DNA damage repair pathway proteins (Weel, CDC25, Rad51, chkl, ATR, ATM and p53) (A2780 and OVCAR5; compared to DMSO control): very few proteins, including ATR and CDC25, were downregulated
- enzymes primarily metabolizing ([3]; liver and gut): CYP2C19, CYP3A4, and UGT1A7, UGT1A9, and UGT2B7
- tumor burden compared to control group (OVCAR5 Luc; 50 mg/kg i.p.): reduction in tumor burden
- ascites volume (OVCAR5 Luc; 50 mg/kg i.p., statistical significance not reached): controlled
- body weights (OVCAR5 Luc; 1, 10 and 50 mg/kg based on CBD content, i.p., 3 times per week until day 32): not affected
- tolerability / adverse effects (OVCAR5 Luc; 1, 10 and 50 mg/kg, i.p., 3 times per week until day 32): well tolerated and did not cause any adverse effects
- activity [4]: equipotent and active
- IC50 [2]: 7.8 to 14.7 µM
- affinity for CB2 receptor (CB2): little affinity

SMILES: C=C(C)[C@@H]1C[C@H](O)C(C)=C[C@H]1c1c(O)cc(CCCCC)cc1O [6-OH-CBD, 6-hydroxy-cannabidiol]
- circulating metabolite as percent of the parent based on plasma AUC of cannabidiol [3]: < 10%

SMILES: CC(C)=CCC[C@](C)(O)[C@@H]1CC=C(C)CC1 [alpha-bisabolol, (2S)-6-Methyl-2-[(1S)-4-methylcyclohex-3-en-1-yl]hept-5-en-2-ol]
- IC50 (normal endothelial cells): 5 µM
- IC50 (ALL): 73 µM

SMILES: CC1=CC=C(C(C)C)CC1 [alpha-terpinene, 1-Isopropyl-4-methyl-1,3-cyclohexadiene]
- IC50 [5]: 60 to 180 µM

SMILES: C=C(C)[C@@H]1CCC(CO)=C[C@H]1c1c(O)cc(CCCCC)cc1O [7-OH-CBD, 7-hydroxy-cannabidiol]
- circulating metabolite as percent of the parent based on plasma AUC of cannabidiol [3]: approximately 38%
- activity [4]: equipotent and active
